Results: PubChem BioAssay (NCI)
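GI50 is the concentration that inhibits growth by half. TGI: total growth inhibition.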

Tests used:
Assay in all cases: NCI tumour cell line growth inhibition, 384-well format
786-0 renal = test system: 786-0 renal
A498 renal = test system: A498 renal
A549 NSCLC = test system: A549 NSCLC
ACHN renal = test system: ACHN renal
BT-549 breast = test system: BT-549 breast
CAKI-1 renal = test system: CAKI-1 renal
COLO 205 colon = test system: COLO 205 colon
DU-145 prostate = test system: DU-145 prostate
EKVX NSCLC = test system: EKVX NSCLC
HCT-116 colon = test system: HCT-116 colon
HCT-15 colon = test system: HCT-15 colon
HL-60(TB) leukemia = test system: HL-60(TB) leukemia
HOP-62 NSCLC = test system: HOP-62 NSCLC
HOP-92 NSCLC = test system: HOP-92 NSCLC
HS 578T breast = test system: HS 578T breast
HT29 colon = test system: HT29 colon
IGROV1 ovarian = test system: IGROV1 ovarian
K-562 leukemia = test system: K-562 leukemia
KM12 colon = test system: KM12 colon
M14 melanoma = test system: M14 melanoma
MALME-3M melanoma = test system: MALME-3M melanoma
MCF7 breast = test system: MCF7 breast
MDA-MB-231 breast = test system: MDA-MB-231 breast
MDA-MB-435 melanoma = test system: MDA-MB-435 melanoma
MDA-MB-468 breast = test system: MDA-MB-468 breast
MOLT-4 leukemia = test system: MOLT-4 leukemia
NCI-H226 lung = test system: NCI-H226 lung
NCI-H23 lung = test system: NCI-H23 lung
NCI-H322M lung = test system: NCI-H322M lung
NCI-H522 lung = test system: NCI-H522 lung
OVCAR-3 ovarian = test system: OVCAR-3 ovarian
OVCAR-4 ovarian = test system: OVCAR-4 ovarian
OVCAR-5 ovarian = test system: OVCAR-5 ovarian
OVCAR-8 ovarian = test system: OVCAR-8 ovarian
PC-3 prostate = test system: PC-3 prostate
SF-268 CNS = test system: SF-268 CNS
SF-295 CNS = test system: SF-295 CNS
SF-539 CNS = test system: SF-539 CNS
SK-MEL-2 melanoma = test system: SK-MEL-2 melanoma
SK-MEL-28 melanoma = test system: SK-MEL-28 melanoma
SK-MEL-5 melanoma = test system: SK-MEL-5 melanoma
SK-OV-3 ovarian = test system: SK-OV-3 ovarian
SN12C renal = test system: SN12C renal
SNB-19 CNS = test system: SNB-19 CNS
SNB-75 CNS = test system: SNB-75 CNS
SR leukemia = test system: SR leukemia
SW-620 colon = test system: SW-620 colon
T-47D breast = test system: T-47D breast
TK-10 renal = test system: TK-10 renal
U251 glioblastoma = test system: U251 glioblastoma
UACC-257 melanoma = test system: UACC-257 melanoma
UACC-62 melanoma = test system: UACC-62 melanoma
UO-31 renal = test system: UO-31 renal

Compound: CNC(=O)c1cc2c(Oc3ccc(NC(=O)C4(C(=O)Nc5ccc(F)cc5)CC4)cc3)ccnc2cc1OC
- GI50 ([…]-0 renal): 3.09 µM
- TGI (786-0 renal): 12.5 µM
- GI50 (A498 renal): 2.87 µM
- TGI (A498 renal): 9.79 µM
- GI50 (A549 NSCLC): 3.1 µM
- TGI (A549 NSCLC): 11.2 µM
- GI50 (ACHN renal): 1.67 µM
- TGI (ACHN renal): 5.7 µM
- GI50 (BT-549 breast): 2.49 µM
- TGI (BT-549 breast): 6.88 µM
- GI50 (CAKI-1 renal): 1.61 µM
- TGI (CAKI-1 renal): 3.42 µM
- GI50 (COLO 205 colon): 3.38 µM
- TGI (COLO 205 colon): 14.4 µM
- GI50 (DU-145 prostate): 4.12 µM
- TGI (DU-145 prostate): > 100 µM
- GI50 (EKVX NSCLC): 1.68 µM
- TGI (EKVX NSCLC): 5.23 µM
- GI50 (HCT-116 colon): 3.17 µM
- TGI (HCT-116 colon): 19.9 µM
- GI50 (HCT-15 colon): 2.96 µM
- TGI (HCT-15 colon): 12.3 µM
- GI50 (HL-60(TB) leukemia): 2.13 µM
- TGI (HL-60(TB) leukemia): 4.05 µM
- GI50 (HOP-62 NSCLC): 3.47 µM
- TGI (HOP-62 NSCLC): 24.3 µM
- GI50 (HOP-92 NSCLC): 1.37 µM
- TGI (HOP-92 NSCLC): 5.99 µM
- GI50 (HS 578T breast): 0.601 µM
- TGI (HS 578T breast): 2.73 µM
- GI50 (HT29 colon): 2.96 µM
- TGI (HT29 colon): 13.3 µM
- GI50 (IGROV1 ovarian): 1.48 µM
- TGI (IGROV1 ovarian): 3.41 µM
- GI50 (K-562 leukemia): 0.261 µM
- TGI (K-562 leukemia): 1.29 µM
- GI50 (KM12 colon): 4.09 µM
- TGI (KM12 colon): 74.6 µM
- GI50 (M14 melanoma): 3.36 µM
- TGI (M14 melanoma): 31.5 µM
- GI50 (MALME-3M melanoma): 3.5 µM
- TGI (MALME-3M melanoma): 17.1 µM
- GI50 (MCF7 breast): 1.72 µM
- TGI (MCF7 breast): 10.4 µM
- GI50 (MDA-MB-231 breast): 3.33 µM
- TGI (MDA-MB-231 breast): > 100 µM
- GI50 (MDA-MB-435 melanoma): 1.63 µM
- TGI (MDA-MB-435 melanoma): 3.47 µM
- GI50 (MDA-MB-468 breast): 1.57 µM
- TGI (MDA-MB-468 breast): 4.59 µM
- GI50 (MOLT-4 leukemia): 1.4 µM
- TGI (MOLT-4 leukemia): 2.72 µM
- GI50 (NCI-H226 lung): 1.63 µM
- TGI (NCI-H226 lung): 6.07 µM
- GI50 (NCI-H23 lung): 0.546 µM
- TGI (NCI-H23 lung): 4.73 µM
- GI50 (NCI-H322M lung): 2.64 µM
- TGI (NCI-H322M lung): 8.79 µM
- GI50 (NCI-H522 lung): 1.96 µM
- TGI (NCI-H522 lung): 5.53 µM
- GI50 (OVCAR-3 ovarian): 2.56 µM
- TGI (OVCAR-3 ovarian): 12.4 µM
- GI50 (OVCAR-4 ovarian): 3.87 µM
- TGI (OVCAR-4 ovarian): > 100 µM
- GI50 (OVCAR-5 ovarian): 3.35 µM
- TGI (OVCAR-5 ovarian): > 100 µM
- GI50 (OVCAR-8 ovarian): 3.59 µM
- TGI (OVCAR-8 ovarian): > 100 µM
- GI50 (PC-3 prostate): 3.94 µM
- TGI (PC-3 prostate): > 100 µM
- GI50 (SF-268 CNS): 3.72 µM
- TGI (SF-268 CNS): > 100 µM
- GI50 (SF-295 CNS): 0.471 µM
- TGI (SF-295 CNS): 8.18 µM
- GI50 (SF-539 CNS): 0.18 µM
- TGI (SF-539 CNS): 3.23 µM
- GI50 (SK-MEL-2 melanoma): 2.19 µM
- TGI (SK-MEL-2 melanoma): 5.67 µM
- GI50 (SK-MEL-28 melanoma): 2.9 µM
- TGI (SK-MEL-28 melanoma): > 100 µM
- GI50 (SK-MEL-5 melanoma): 1.43 µM
- TGI (SK-MEL-5 melanoma): 4.45 µM
- GI50 (SK-OV-3 ovarian): 1.83 µM
- TGI (SK-OV-3 ovarian): 5.63 µM
- GI50 (SN12C renal): 0.507 µM
- TGI (SN12C renal): 8.21 µM
- GI50 (SNB-19 CNS): 16.2 µM
- TGI (SNB-19 CNS): > 100 µM
- GI50 (SNB-75 CNS): 1.08 µM
- TGI (SNB-75 CNS): 3.01 µM
- GI50 (SR leukemia): 1.64 µM
- TGI (SR leukemia): 3.08 µM
- GI50 (SW-620 colon): 2.72 µM
- TGI (SW-620 colon): 10.4 µM
- GI50 (T-47D breast): 1.81 µM
- TGI (T-47D breast): 9.37 µM
- GI50 (TK-10 renal): 2.85 µM
- TGI (TK-10 renal): 14.1 µM
- GI50 (U251 glioblastoma): 4.56 µM
- TGI (U251 glioblastoma): > 100 µM
- GI50 (UACC-257 melanoma): 2.35 µM
- TGI (UACC-257 melanoma): 20.5 µM
- GI50 (UACC-62 melanoma): 1.86 µM
- TGI (UACC-62 melanoma): 5.52 µM
- GI50 (UO-31 renal): 1.99 µM
- TGI (UO-31 renal): 4.9 µM
